Laboratory results as given in patent publication US10231954B2, “Neurodegenerative therapies” (LYTIX BIOPHARMA AS, priority 2014, dated 2019).

Legend:
Assay type in all cases: biochemical
MST2 = biological target: T1, MST2 (Homo sapiens, UniProt Q13188); test: Kinase profiling MST2; settings: 100 micromolar inhibitor concentration, 100 is no change; for remaining activity at 100 µM: read-out: residual kinase activity, MST2
T1 sequence (Q13188 1-491): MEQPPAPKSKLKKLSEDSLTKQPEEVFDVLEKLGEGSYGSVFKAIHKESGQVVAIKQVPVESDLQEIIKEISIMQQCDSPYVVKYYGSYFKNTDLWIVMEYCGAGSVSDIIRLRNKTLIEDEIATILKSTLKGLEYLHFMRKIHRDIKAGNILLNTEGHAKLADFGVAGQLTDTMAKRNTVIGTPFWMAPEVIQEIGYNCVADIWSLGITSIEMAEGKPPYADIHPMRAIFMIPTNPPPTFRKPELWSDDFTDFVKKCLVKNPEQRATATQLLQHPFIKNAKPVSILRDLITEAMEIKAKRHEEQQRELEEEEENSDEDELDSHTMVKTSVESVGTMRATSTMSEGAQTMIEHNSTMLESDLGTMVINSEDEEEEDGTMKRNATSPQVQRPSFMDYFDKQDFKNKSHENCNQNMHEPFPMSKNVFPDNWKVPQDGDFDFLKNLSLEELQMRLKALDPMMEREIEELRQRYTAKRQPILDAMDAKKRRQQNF
From the text: (§1) Any value less that 25 is considered to be highly significant inhibition.

PAK4 = PAK4 (Homo sapiens, UniProt O96013); test: Kinase profiling PAK4; settings: 100 micromolar inhibitor concentration, 100 is no change; for remaining activity at 100 µM: read-out: residual kinase activity, PAK4
Chain of PAK4 (O96013 whole entry, species assumed): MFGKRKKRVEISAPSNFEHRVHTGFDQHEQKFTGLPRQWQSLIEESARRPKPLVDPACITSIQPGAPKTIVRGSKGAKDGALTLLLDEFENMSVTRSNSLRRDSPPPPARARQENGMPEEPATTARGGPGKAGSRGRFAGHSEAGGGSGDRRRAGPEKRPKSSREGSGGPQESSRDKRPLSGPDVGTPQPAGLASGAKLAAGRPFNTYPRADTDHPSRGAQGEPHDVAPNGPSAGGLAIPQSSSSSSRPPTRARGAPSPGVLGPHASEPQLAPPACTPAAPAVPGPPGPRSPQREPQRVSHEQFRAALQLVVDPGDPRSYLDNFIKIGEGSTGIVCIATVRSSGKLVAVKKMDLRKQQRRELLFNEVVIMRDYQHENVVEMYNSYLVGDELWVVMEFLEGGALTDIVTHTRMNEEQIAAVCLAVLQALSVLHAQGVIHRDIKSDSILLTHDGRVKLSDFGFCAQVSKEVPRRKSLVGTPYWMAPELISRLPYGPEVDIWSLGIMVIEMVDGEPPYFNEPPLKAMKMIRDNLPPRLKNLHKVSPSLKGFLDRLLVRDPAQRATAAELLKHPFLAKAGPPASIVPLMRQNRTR
From the text: as §1

CAMK1 = CAMK1 (Homo sapiens, UniProt Q14012); test: Kinase profiling CAMK1; settings: 100 micromolar inhibitor concentration, 100 is no change; for remaining activity at 100 µM: read-out: residual kinase activity, CAMK1
Chain of CAMK1 (Q14012 whole entry, species assumed): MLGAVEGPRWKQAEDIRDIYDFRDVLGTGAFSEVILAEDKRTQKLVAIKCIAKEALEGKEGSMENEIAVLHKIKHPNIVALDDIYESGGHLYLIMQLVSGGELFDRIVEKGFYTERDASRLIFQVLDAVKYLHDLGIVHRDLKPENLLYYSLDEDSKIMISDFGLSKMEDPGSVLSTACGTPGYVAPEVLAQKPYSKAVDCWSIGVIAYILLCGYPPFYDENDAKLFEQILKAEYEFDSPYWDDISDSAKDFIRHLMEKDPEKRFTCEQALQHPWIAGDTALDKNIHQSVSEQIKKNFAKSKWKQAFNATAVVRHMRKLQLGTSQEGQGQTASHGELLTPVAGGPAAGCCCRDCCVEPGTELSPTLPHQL
From the text: as §1

RSK2 = RSK2 (Homo sapiens, UniProt P51812); test: Kinase profiling RSK2; settings: 100 micromolar inhibitor concentration, 100 is no change; for remaining activity at 100 µM: read-out: residual kinase activity, RSK2
Chain of RSK2 (P51812 whole entry, species assumed): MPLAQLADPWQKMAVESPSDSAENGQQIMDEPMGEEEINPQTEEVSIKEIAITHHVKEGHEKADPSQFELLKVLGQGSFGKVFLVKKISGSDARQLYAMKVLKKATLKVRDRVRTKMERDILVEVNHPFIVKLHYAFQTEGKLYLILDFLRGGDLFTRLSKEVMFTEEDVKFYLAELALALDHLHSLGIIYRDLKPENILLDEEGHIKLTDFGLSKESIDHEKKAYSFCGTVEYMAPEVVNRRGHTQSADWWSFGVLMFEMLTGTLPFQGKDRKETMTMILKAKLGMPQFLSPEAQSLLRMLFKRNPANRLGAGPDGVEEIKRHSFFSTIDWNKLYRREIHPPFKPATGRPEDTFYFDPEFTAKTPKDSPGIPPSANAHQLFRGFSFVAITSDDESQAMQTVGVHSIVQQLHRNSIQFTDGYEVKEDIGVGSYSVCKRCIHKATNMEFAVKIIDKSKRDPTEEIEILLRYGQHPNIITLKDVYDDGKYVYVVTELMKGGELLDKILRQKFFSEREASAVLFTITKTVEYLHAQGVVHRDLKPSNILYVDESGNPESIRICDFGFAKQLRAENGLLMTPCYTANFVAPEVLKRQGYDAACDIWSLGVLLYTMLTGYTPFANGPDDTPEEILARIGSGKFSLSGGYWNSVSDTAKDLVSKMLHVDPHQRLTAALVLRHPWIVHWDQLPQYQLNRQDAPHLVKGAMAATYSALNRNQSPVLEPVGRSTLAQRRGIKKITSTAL
From the text: as §1

p38d MAPK = biological target: T2, p38d MAPK (Homo sapiens, UniProt O15264); test: Kinase profiling p38d MAPK; settings: 100 micromolar inhibitor concentration, 100 is no change; for remaining activity at 100 µM: read-out: residual kinase activity, p38d MAPK
T2 sequence (O15264 1-365): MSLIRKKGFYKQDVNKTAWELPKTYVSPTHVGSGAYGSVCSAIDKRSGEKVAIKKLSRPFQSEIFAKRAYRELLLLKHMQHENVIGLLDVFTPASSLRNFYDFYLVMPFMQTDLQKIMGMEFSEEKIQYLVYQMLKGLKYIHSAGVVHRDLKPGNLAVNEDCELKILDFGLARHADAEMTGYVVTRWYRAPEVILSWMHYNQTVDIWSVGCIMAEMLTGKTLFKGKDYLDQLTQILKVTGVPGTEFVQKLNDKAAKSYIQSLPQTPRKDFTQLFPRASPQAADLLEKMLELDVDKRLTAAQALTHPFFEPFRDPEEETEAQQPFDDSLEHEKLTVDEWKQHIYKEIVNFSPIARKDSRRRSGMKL
From the text: as §1

MSK1 = MSK1 (Homo sapiens, UniProt O75582); test: Kinase profiling MSK1; settings: 100 micromolar inhibitor concentration, 100 is no change; for remaining activity at 100 µM: read-out: residual kinase activity, MSK1
From the text: as §1

MARK3 = MARK3 (Homo sapiens, UniProt P27448); test: Kinase profiling MARK3; settings: 100 micromolar inhibitor concentration, 100 is no change; for remaining activity at 100 µM: read-out: residual kinase activity, MARK3
From the text: as §1

p38a MAPK = p38a MAPK (Homo sapiens, UniProt Q16539); test: Kinase profiling p38a MAPK; settings: 100 micromolar inhibitor concentration, 100 is no change; for remaining activity at 100 µM: read-out: residual kinase activity, p38a MAPK
Chain of p38a MAPK (Q16539 whole entry): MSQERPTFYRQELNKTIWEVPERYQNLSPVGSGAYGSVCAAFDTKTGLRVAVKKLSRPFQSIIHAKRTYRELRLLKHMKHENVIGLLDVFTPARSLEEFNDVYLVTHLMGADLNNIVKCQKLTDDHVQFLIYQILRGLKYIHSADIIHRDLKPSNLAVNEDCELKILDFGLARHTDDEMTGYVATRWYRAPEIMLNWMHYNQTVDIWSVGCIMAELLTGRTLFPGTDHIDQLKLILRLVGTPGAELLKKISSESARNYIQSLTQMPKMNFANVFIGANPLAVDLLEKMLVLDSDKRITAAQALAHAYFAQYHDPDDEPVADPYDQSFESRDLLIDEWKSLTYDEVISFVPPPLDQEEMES
From the text: as §1

SmMLCK = SmMLCK (Homo sapiens, UniProt Q15746); test: Kinase profiling SmMLCK; settings: 100 micromolar inhibitor concentration, 100 is no change; for remaining activity at 100 µM: read-out: residual kinase activity, SmMLCK
Chain of SmMLCK (Q15746 923-1914): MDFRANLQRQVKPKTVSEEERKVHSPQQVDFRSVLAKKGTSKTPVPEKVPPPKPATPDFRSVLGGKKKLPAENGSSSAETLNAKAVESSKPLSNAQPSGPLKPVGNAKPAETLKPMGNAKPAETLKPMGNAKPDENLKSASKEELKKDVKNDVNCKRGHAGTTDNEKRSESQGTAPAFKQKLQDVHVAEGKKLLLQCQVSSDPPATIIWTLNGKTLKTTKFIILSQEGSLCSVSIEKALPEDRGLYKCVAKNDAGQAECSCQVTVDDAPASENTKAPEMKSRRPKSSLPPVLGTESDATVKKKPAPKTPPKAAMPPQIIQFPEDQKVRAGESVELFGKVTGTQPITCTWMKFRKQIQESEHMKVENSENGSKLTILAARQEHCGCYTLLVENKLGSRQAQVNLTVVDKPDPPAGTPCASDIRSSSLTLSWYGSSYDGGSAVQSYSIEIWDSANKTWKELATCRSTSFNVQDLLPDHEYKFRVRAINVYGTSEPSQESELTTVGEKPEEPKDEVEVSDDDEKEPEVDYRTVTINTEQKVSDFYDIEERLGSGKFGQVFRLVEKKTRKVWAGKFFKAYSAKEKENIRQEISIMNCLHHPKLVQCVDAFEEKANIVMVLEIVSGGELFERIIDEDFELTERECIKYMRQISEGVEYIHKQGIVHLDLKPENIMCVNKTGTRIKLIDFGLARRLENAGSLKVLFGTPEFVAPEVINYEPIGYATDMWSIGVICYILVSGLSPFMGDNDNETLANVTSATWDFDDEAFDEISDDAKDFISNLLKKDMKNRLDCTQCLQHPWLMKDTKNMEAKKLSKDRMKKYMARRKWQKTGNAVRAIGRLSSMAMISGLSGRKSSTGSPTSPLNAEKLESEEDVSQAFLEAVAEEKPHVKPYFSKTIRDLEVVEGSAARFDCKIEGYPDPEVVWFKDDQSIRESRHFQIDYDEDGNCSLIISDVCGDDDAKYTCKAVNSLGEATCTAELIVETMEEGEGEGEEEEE

NEK6 = NEK6 (Homo sapiens, UniProt Q9HC98); test: Kinase profiling NEK6; settings: 100 micromolar inhibitor concentration, 100 is no change; for remaining activity at 100 µM: read-out: residual kinase activity, NEK6
Chain of NEK6 (Q9HC98 whole entry, species assumed): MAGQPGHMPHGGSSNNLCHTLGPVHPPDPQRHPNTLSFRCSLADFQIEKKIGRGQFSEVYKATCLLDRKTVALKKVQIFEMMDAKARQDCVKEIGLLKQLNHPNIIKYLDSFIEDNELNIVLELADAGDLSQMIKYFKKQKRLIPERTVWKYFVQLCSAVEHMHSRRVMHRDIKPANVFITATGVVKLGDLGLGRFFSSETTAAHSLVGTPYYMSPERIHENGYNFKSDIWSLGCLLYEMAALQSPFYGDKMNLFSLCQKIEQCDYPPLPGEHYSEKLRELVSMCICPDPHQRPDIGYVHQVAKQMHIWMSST
From the text: as §1

TBK1 = biological target: T3, TBK1 (Homo sapiens, UniProt Q9UHD2); test: Kinase profiling TBK1; settings: 100 micromolar inhibitor concentration, 100 is no change; for remaining activity at 100 µM: read-out: residual kinase activity, TBK1
T3 sequence (Q9UHD2 1-729): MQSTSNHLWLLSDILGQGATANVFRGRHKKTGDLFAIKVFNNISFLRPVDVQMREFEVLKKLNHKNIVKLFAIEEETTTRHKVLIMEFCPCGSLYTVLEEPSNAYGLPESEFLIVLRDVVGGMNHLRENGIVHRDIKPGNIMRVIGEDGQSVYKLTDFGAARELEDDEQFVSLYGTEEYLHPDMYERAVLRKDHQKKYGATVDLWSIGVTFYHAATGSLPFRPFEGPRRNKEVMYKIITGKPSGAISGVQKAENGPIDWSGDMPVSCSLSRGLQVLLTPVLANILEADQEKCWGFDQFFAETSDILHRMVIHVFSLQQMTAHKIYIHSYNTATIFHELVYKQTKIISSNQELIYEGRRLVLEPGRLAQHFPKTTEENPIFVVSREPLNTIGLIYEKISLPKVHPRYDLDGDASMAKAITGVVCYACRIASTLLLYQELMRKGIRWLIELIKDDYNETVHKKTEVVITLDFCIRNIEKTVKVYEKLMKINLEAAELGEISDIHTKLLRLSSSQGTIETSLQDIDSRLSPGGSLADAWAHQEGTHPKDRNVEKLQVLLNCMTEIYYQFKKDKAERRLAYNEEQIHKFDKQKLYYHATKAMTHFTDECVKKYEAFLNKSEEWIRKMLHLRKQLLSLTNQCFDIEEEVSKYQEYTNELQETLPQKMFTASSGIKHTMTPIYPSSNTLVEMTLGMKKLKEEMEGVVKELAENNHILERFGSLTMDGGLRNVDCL
From the text: as §1

MLK3 = MLK3 (Homo sapiens, UniProt Q16584); test: Kinase profiling MLK3; settings: 100 micromolar inhibitor concentration, 100 is no change; for remaining activity at 100 µM: read-out: residual kinase activity, MLK3
Chain of MLK3 (Q16584 whole entry, species assumed): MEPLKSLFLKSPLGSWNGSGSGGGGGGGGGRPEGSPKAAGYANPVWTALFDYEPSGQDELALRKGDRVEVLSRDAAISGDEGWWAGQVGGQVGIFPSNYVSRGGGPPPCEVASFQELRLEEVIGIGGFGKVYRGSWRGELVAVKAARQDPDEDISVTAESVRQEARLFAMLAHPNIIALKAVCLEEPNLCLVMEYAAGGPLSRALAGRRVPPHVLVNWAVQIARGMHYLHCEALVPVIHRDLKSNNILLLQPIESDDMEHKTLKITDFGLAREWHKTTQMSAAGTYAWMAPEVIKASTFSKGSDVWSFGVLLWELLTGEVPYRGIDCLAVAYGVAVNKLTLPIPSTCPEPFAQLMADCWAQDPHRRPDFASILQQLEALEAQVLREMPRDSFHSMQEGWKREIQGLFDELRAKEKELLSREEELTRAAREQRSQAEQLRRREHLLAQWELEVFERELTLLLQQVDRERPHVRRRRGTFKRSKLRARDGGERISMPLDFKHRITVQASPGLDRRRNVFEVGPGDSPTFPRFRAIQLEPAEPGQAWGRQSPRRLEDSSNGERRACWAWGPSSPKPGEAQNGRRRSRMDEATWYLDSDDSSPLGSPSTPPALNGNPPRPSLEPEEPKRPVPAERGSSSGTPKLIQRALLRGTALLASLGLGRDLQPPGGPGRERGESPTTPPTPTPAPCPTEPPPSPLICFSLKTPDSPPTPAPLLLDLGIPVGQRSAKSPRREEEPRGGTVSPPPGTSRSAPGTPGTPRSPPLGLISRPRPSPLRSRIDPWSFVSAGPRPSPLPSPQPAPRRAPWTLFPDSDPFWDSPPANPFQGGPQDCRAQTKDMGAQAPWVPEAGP
From the text: as §1

IRAK4 = biological target: T4, IRAK4 (Homo sapiens, UniProt Q9NWZ3); test: Kinase profiling IRAK4; settings: 100 micromolar inhibitor concentration, 100 is no change; for remaining activity at 100 µM: read-out: residual kinase activity, IRAK4
T4 sequence (Q9NWZ3 1-460): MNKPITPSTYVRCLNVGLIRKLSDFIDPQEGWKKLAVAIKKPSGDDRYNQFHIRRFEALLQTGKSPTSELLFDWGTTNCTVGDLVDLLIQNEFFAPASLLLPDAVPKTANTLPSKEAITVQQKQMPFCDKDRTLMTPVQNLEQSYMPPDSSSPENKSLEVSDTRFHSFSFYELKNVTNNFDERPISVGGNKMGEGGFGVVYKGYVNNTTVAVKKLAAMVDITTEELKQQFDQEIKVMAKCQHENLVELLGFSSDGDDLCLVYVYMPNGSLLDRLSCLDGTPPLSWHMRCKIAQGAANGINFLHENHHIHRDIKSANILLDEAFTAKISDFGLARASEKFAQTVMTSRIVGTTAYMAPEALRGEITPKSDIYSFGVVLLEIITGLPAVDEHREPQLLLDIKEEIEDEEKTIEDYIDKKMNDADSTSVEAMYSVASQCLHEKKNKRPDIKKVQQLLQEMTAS
From the text: as §1

SYK = SYK (Homo sapiens, UniProt P43405); test: Kinase profiling SYK; settings: 100 micromolar inhibitor concentration, 100 is no change; for remaining activity at 100 µM: read-out: residual kinase activity, SYK
From the text: as §1

PKBb = PKBb (Homo sapiens, UniProt P31751); test: Kinase profiling PKBb; settings: for remaining activity at 100 µM: read-out: residual kinase activity, PKBb; for residual kinase activity, PKBb: 100 micromolar inhibitor concentration, 100 is no change
Chain of PKBb (P31751 whole entry): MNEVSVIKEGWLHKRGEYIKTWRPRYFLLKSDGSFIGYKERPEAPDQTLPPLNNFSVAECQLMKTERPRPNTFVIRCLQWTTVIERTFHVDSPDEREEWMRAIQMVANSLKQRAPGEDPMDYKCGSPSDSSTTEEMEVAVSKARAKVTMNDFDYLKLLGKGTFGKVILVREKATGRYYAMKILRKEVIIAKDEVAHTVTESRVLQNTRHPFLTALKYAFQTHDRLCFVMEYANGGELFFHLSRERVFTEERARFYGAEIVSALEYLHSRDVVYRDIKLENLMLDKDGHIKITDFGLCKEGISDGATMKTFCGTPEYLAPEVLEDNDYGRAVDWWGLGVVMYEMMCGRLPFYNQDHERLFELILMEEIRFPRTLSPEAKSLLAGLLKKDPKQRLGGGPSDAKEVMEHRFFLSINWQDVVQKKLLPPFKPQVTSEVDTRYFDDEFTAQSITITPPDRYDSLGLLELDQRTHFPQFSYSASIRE
From the text: as §1

ERK1 = ERK1 (Homo sapiens, UniProt P27361); test: Kinase profiling ERK1; settings: 100 micromolar inhibitor concentration, 100 is no change; for remaining activity at 100 µM: read-out: residual kinase activity, ERK1
From the text: as §1

Row | SMILES | remaining activity at 100 µM (MST2) [%] | remaining activity at 100 µM (PAK4) [%] | remaining activity at 100 µM (CAMK1) [%] | remaining activity at 100 µM (RSK2) [%] | residual kinase activity, MST2 (MST2) | residual kinase activity, PAK4 (PAK4) | residual kinase activity, CAMK1 (CAMK1) | residual kinase activity, RSK2 (RSK2) | residual kinase activity, p38d MAPK (p38d MAPK) | residual kinase activity, MSK1 (MSK1) | residual kinase activity, MARK3 (MARK3) | residual kinase activity, p38a MAPK (p38a MAPK) | residual kinase activity, SmMLCK (SmMLCK) | residual kinase activity, NEK6 (NEK6) | residual kinase activity, TBK1 (TBK1) | residual kinase activity, MLK3 (MLK3) | residual kinase activity, IRAK4 (IRAK4) | residual kinase activity, SYK (SYK) | residual kinase activity, PKBb (PKBb) | residual kinase activity, ERK1 (ERK1) | other results
1 | COc1ccc2sc(NC(C)=O)nc2c1 [Compound 03-21] | 91 | 94 | 81 | 94 |  |  |  |  |  |  |  |  |  |  |  |  |  |  |  |  | remaining activity at 100 µM (p38d MAPK): 75%; remaining activity at 100 µM (MSK1): 93%; remaining activity at 100 µM (MARK3): 72%; remaining activity at 100 µM (p38a MAPK): 96%; remaining activity at 100 µM (SmMLCK): 50%; remaining activity at 100 µM (NEK6): 108%; remaining activity at 100 µM (TBK1): 81%; remaining activity at 100 µM (MLK3): 59%; remaining activity at 100 µM (IRAK4): 52%; remaining activity at 100 µM (SYK): 72%; remaining activity at 100 µM (PKBb): 92%; remaining activity at 100 µM (ERK1): 87%
2 | CC(=O)Nc1nc2ccccc2s1 [Compound 03-32] |  |  |  |  | 88 | 75 | 99 | 105 | 80 | 98 | 85 | 91 | 81 | 92 | 88 | 71 | 65 | 116 | 112 | 83 | 
3 | O=C(Nc1nc2cc(O)ccc2s1)c1cccnc1 [Compound 03-33] |  |  |  |  | 73 | 92 | 104 | 85 | 103 | 92 | 85 | 105 | 52 | 107 | 97 | 48 | 42 | 86 | 93 | 93 | 
4 | O=C(Nc1nc2ccc(O)cc2s1)c1ccccc1 [Compound 03-60] |  |  |  |  | 40 | 35 | 22 | 34 | 75 | 31 | 33 | 74 | 15 | 97 | 36 | 5 | 22 | 64 | 86 | 67 | 
5 | CC(=O)Nc1nc2cc(C(F)(F)F)ccc2s1 [Compound 03-73] | 80 | 71 | 89 | 83 |  |  |  |  |  |  |  |  |  |  |  |  |  |  |  |  | remaining activity at 100 µM (p38d MAPK): 52%; remaining activity at 100 µM (MSK1): 91%; remaining activity at 100 µM (MARK3): 63%; remaining activity at 100 µM (p38a MAPK): 92%; remaining activity at 100 µM (SmMLCK): 71%; remaining activity at 100 µM (NEK6): 119%; remaining activity at 100 µM (TBK1): 64%; remaining activity at 100 µM (MLK3): 57%; remaining activity at 100 µM (IRAK4): 60%; remaining activity at 100 µM (SYK): 74%; remaining activity at 100 µM (PKBb): 104%; remaining activity at 100 µM (ERK1): 83%
